Reference: patent US4748154A, “Peptide derivatives, their production and use” (Takeda Chemical Industries, Ltd., priority 1985, dated 1988)
Square brackets hold non-standard residues; d marks the D form. Peptide text beside a SMILES is read from it. * marks the point of attachment. Cys(free,S-linked) = N[C@@H](CS*)C(=O)O; pGlu = O=C1CC[C@@H](C(=O)O)N1

Test system: C57BL/6 mice
Assay: one-trial passive avoidance task, amnesia induced by cycloheximide
Type: in vivo
Details: 24 h after footshock and cycloheximide 20 mg/kg sc
Protocol: The effect on memory process was tested in a one-trial passive avoidance task in C57BL/6 mice. The learning procedure was fundamentally the same as that used by Burbach et al (Science; 221, 1310-1312, 1983). The apparatus consisted of an illuminated compartment attached to a dark one with grid floor. Mice were placed in the light compartment and allowed to enter the dark one. When mice entered the dark compartment, an electric footshock (0.4 mA, 3 sec) was delivered. Immediately after receiving a footshock, mice were administered with cycloheximide (20 mg/kg, sc), a protein synthesis inhibitor, and a retention test trial was carried out 24 hours later. Retention of passive avoidance behavior was measured by the latency to reenter the dark compartment after placing mice in the light compartment. Five minutes before the testing, mice were treated with 5 μl of peptide in a dose of 10 pg and 10 ng by intracerebroventricular injection through a hypodermic needle attached to a 25 μl syringe. Compounds of the present invention were dissolved in saline. […] Median latencies in peptide-treated groups were expressed as a percentage of that in control, and either Mann-WhitneyU test for latencies or chi-square test for percent of mice showing latencies longer than 50 seconds was used in statistical analysis. Number of mice used in each group was 9-22.

[1] = intracerebroventricular injection (10 pg and 10 ng tested; dose not stated per value) 5 min before retention test

Compound	median latency to reenter the dark compartment, as a percentage of that in control [1] [%]	median latency to reenter the dark compartment, as a percentage of that in control (dose of 10 pg, intracerebroventricular injection 5 min before retention test)
NCCCC[C@@H](NC(=O)[C@@H]1CCCN1C(=O)[C@H](CSSC[C@H](N)C(=O)O)NC(=O)[C@H](CC(N)=O)NC(=O)[C@@H]1CCC(=O)N1)C(=O)O [Example 1] ([pGlu]NC(Cys(free,S-linked))P[dK]-OH)	238	
NCCCC[C@@H](NC(=O)[C@H]1CCCN1C(=O)[C@H](CSSC[C@H](N)C(=O)O)NC(=O)[C@H](CC(N)=O)NC(=O)[C@@H]1CCC(=O)N1)C(=O)O [Example 6] ([pGlu]NC(Cys(free,S-linked))[dP][dK]-OH)	238	
N=C(N)NCCC[C@H](NC(=O)[C@@H]1CCCN1C(=O)[C@H](CSSC[C@H](N)C(=O)O)NC(=O)[C@H](CC(N)=O)NC(=O)[C@@H]1CCC(=O)N1)C(=O)NCC(N)=O [reference compound] ([pGlu]NC(Cys(free,S-linked))PRG-NH2)		191 % of control
C[C@H](NC(=O)[C@H](CSSC[C@H](N)C(=O)O)NC(=O)[C@H](CC(N)=O)NC(=O)[C@@H]1CCC(=O)N1)C(=O)N[C@H](CCCCN)C(=O)O [Example 8] ([pGlu]NC(Cys(free,S-linked))A[dK]-OH)	179	
